Measurements as given in ChEMBL document CHEMBL1909046, “DrugMatrix in vitro pharmacology data”.

Columns and labels:
[1] = DRUGMATRIX: Purinergic P2X radioligand binding (ligand: [3H] alpha, beta-Methylene-ATP); type: cell membranes, Oryctolagus cuniculus, New Zealand albino, Urinary bladder, Membrane; conditions: Not Active = under 50% inhibition at 10 µM
Glucocorticoid receptor [2] = target: T1, Glucocorticoid receptor (Homo sapiens, UniProt P04150); conditions: hela s3; further: in other assays of this panel Not Active means under 50% inhibition at 10 µM
T1 sequence (P04150 whole entry): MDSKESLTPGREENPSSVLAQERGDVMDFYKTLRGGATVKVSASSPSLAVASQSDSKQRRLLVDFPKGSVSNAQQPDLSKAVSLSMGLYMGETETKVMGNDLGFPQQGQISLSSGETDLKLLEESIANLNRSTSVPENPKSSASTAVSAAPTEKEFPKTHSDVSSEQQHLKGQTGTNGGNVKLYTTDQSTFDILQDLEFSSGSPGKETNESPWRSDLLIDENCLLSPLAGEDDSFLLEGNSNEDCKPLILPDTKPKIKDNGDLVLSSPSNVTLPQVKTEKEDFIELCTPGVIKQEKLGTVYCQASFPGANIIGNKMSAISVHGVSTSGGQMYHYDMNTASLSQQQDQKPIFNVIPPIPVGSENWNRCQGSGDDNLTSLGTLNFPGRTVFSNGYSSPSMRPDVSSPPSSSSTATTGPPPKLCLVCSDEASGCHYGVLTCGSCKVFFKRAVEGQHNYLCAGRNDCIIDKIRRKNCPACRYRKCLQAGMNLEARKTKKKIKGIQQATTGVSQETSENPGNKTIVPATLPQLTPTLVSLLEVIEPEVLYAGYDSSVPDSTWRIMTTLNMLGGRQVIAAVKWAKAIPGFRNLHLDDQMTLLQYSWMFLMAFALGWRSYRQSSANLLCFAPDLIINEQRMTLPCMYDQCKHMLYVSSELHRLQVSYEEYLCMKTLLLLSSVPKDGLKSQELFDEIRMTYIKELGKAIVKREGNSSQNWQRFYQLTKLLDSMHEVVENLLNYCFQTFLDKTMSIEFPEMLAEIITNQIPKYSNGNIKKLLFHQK

Cytochrome P450 2D6 = Cytochrome P450 2D6 (Homo sapiens, UniProt P10635); further: in other assays of this panel Not Active means under 50% inhibition at 10 µM
Cytochrome P450 2C19 = Cytochrome P450 2C19 (Homo sapiens, UniProt P33261); further: in other assays of this panel Not Active means under 50% inhibition at 10 µM
Androgen receptor [3] = target: T2, Androgen receptor (Rattus norvegicus, UniProt P15207); further: in other assays of this panel Not Active means under 50% inhibition at 10 µM
T2 sequence (P15207 whole entry): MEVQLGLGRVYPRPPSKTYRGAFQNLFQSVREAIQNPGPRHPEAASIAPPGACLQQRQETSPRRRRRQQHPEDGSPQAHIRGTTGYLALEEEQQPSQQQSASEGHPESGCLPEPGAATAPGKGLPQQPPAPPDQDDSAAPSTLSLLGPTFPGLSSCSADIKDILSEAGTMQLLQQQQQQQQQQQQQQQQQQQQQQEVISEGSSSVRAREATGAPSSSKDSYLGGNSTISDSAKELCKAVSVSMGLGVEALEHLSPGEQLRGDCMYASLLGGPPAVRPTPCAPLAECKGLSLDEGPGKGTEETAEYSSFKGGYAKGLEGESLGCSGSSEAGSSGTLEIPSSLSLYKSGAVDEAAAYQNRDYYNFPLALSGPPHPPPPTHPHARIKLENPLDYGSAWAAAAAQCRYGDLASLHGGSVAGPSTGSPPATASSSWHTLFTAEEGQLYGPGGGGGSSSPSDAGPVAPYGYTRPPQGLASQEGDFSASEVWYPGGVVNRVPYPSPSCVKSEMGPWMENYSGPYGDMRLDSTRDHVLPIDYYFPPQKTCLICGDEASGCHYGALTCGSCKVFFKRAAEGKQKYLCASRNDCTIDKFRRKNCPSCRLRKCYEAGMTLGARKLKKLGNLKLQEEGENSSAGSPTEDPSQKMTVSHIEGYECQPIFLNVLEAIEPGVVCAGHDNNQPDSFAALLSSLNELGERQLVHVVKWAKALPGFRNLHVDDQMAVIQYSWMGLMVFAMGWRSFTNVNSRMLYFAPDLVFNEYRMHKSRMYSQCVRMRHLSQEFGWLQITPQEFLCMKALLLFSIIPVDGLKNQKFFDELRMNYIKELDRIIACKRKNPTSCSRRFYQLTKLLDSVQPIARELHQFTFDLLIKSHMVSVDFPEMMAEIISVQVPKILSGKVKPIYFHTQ

Androgen receptor [4] = target: T2, Androgen receptor; remark: listed apart in the source
Glucocorticoid receptor [5] = target: T1, Glucocorticoid receptor; assay: biochemical

Sequence of Cytochrome P450 2D6 (P10635 whole entry): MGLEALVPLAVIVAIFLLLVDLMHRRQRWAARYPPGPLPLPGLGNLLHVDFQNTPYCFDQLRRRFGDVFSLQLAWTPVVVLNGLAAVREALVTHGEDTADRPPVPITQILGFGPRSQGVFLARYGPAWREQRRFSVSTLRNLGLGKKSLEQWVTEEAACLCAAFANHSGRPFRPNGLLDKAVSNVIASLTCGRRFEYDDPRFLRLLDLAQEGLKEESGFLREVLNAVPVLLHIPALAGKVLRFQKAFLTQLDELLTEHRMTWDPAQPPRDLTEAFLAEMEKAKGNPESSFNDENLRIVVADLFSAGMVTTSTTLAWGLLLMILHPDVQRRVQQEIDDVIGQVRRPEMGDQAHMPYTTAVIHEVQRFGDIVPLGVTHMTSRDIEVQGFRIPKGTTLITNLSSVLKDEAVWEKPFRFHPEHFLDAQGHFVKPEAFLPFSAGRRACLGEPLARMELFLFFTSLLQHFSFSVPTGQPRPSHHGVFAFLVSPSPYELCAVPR
Sequence of Cytochrome P450 2C19 (P33261 whole entry): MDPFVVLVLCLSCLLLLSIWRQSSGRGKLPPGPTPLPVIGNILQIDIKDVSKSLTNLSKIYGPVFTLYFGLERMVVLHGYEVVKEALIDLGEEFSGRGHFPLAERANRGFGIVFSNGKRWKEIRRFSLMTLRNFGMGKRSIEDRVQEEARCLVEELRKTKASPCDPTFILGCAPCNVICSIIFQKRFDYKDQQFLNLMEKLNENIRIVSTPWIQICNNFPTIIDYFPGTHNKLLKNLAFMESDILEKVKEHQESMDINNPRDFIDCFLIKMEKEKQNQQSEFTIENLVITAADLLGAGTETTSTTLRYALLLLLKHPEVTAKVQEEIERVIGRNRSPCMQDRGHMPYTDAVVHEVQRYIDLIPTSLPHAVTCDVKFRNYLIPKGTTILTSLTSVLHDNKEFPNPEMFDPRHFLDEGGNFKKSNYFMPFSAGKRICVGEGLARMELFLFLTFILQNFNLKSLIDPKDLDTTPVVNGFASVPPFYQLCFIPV

| Molecule | IC50 [1] | Ki [1] | IC50 (Glucocorticoid receptor [2]) | IC50 (Androgen receptor [3]) | further results |
| --- | --- | --- | --- | --- | --- |
| N=C(Nc1ccccc1)Nc1ccccc1 | Not Active | Not Active | Not Active |  | IC50 (Cytochrome P450 2D6): 3440 nM |
| C[C@](O)(CS(=O)(=O)c1ccc(F)cc1)C(=O)Nc1ccc(C#N)c(C(F)(F)F)c1 [(R)-BICALUTAMIDE] | Not Active | Not Active | Not Active |  | IC50 (Cytochrome P450 2C19): 1000 nM |
| CC(=O)Nc1ccc(O)cc1 [ACETAMINOPHEN] | Not Active | Not Active |  | Not Active |  |
| COc1cc2c(c3oc(=O)c4c(c13)CCC4=O)[C@@H]1C=CO[C@@H]1O2 [AFLATOXIN] | Not Active | Not Active | Not Active | Not Active | Ki (Glucocorticoid receptor [2]): Not Active; Ki (Androgen receptor [3]): Not Active |
| Cc1cc(=O)n(-c2ccccc2)n1C [ANTIPYRINE] | Not Active | Not Active |  | Not Active |  |
| CCCCN1CCCCC1C(=O)Nc1c(C)cccc1C.Cl (stereo not drawn) [BUPIVACAINE HYDROCHLORIDE] | Not Active | Not Active |  | Not Active | IC50 (Cytochrome P450 2D6): 400 nM |
| O=C1CC2(CCCC2)CC(=O)N1CCCCN1CCN(c2ncccn2)CC1 [BUSPIRONE] | Not Active | Not Active |  | Not Active |  |
| O=NN(CCCl)C(=O)NCCCl [CARMUSTINE] | Not Active | Not Active | Not Active | Not Active |  |
| CC(=O)OCC(=O)[C@@]1(O)CC[C@H]2[C@@H]3CCC4=CC(=O)CC[C@]4(C)[C@H]3C(=O)C[C@@]21C [CORTISONE ACETATE] | Not Active | Not Active |  | Not Active |  |
| O=C(O)Cc1ccccc1Nc1c(Cl)cccc1Cl [DICLOFENAC] | Not Active | Not Active |  | Not Active |  |
| C[C@H]1O[C@@H](O[C@H]2[C@@H](O)C[C@H](O[C@H]3[C@@H](O)C[C@H](O[C@H]4CC[C@@]5(C)[C@H](CC[C@@H]6[C@@H]5CC[C@]5(C)[C@@H](C7=CC(=O)OC7)CC[C@]65O)C4)O[C@@H]3C)O[C@@H]2C)C[C@H](O)[C@@H]1O [DIGITOXIN] | Not Active | Not Active | Not Active | Not Active |  |
| CCN1CC(CCN2CCOCC2)C(c2ccccc2)(c2ccccc2)C1=O (stereo not drawn) [DOXAPRAM] | Not Active | Not Active | Not Active |  | IC50 (Cytochrome P450 2D6): 100 nM |
| Cn1c(=O)c2c(ncn2CC2OCCO2)n(C)c1=O [DOXOFYLLINE] | Not Active | Not Active |  | Not Active |  |
| C[C@]12CC[C@@H]3c4ccc(OC(=O)c5ccccc5)cc4CC[C@H]3[C@@H]1CC[C@@H]2O [ESTRADIOL BENZOATE] | Not Active | Not Active |  |  | IC50 (Androgen receptor [4]): 10 nM; Ki (Androgen receptor [4]): 6.98 nM; IC50 (Glucocorticoid receptor [5]): 5070 nM; Ki (Glucocorticoid receptor [5]): 2310 nM |
| CC1(C)O[C@@H]2C[C@H]3[C@@H]4C[C@H](F)C5=CC(=O)C=C[C@]5(C)[C@H]4[C@@H](O)C[C@]3(C)[C@]2(C(=O)CO)O1 [FLUNISOLIDE] | Not Active | Not Active |  |  | IC50 (Glucocorticoid receptor [5]): 5.33 nM; Ki (Glucocorticoid receptor [5]): 2.42 nM |
| CC1(C)O[C@@H]2C[C@H]3[C@@H]4C[C@H](F)C5=CC(=O)C=C[C@]5(C)[C@@]4(F)[C@@H](O)C[C@]3(C)[C@]2(C(=O)CO)O1 [FLUOCINOLONE ACETONIDE] | Not Active | Not Active |  |  | IC50 (Glucocorticoid receptor [5]): 3.13 nM; Ki (Glucocorticoid receptor [5]): 1.42 nM |
| CC1(C)O[C@@H]2C[C@H]3[C@@H]4C[C@H](F)C5=CC(=O)CC[C@]5(C)[C@H]4[C@@H](O)C[C@]3(C)[C@]2(C(=O)CO)O1 [FLURANDRENOLIDE] | Not Active | Not Active |  |  | IC50 (Glucocorticoid receptor [5]): 4.45 nM; Ki (Glucocorticoid receptor [5]): 2.02 nM |
| CN(C)c1ccc(C(=C2C=CC(=[N+](C)C)C=C2)c2ccc(N(C)C)cc2)cc1.[Cl-] [GENTIAN VIOLET] | Not Active | Not Active | Not Active |  | IC50 (Androgen receptor [4]): 5570 nM; Ki (Androgen receptor [4]): 3710 nM; IC50 (Cytochrome P450 2D6): 824 nM |
| COc1ccc2c(c1)c(CC(=O)O)c(C)n2C(=O)c1ccc(Cl)cc1 [INDOMETHACIN] | Not Active | Not Active | Not Active | Not Active |  |
| Oc1ccc(OCc2ccccc2)cc1 [MONOBENZONE] | Not Active | Not Active | Not Active | Not Active |  |
| CC(C)(Oc1ccc(C2CCCc3ccccc32)cc1)C(=O)O (stereo not drawn) [NAFENOPIN] | Not Active | Not Active | Not Active | Not Active |  |
| C#C[C@]1(OC(C)=O)CC[C@H]2[C@@H]3CCC4=CC(=O)CC[C@@H]4[C@H]3CC[C@@]21C [NORETHINDRONE ACETATE] | Not Active | Not Active |  |  | IC50 (Cytochrome P450 2C19): 800 nM; IC50 (Glucocorticoid receptor [5]): 646 nM; Ki (Glucocorticoid receptor [5]): 293 nM |
| O=C(C1CCCCC1)N1CC(=O)N2CCc3ccccc3C2C1 (stereo not drawn) [PRAZIQUANTEL] | Not Active | Not Active | Not Active |  |  |
| CCCN(CCC)C(=O)C(CCC(=O)O)NC(=O)c1ccccc1 (stereo not drawn) [PROGLUMIDE] | Not Active | Not Active | Not Active |  |  |
| NC(=O)c1cnccn1 [PYRAZINAMIDE] | Not Active | Not Active | Not Active |  |  |
| OC(CCN1CCCCC1)(c1ccccc1)C1CCCCC1 (stereo not drawn) [TRIHEXYPHENIDYL] | Not Active | Not Active |  |  | IC50 (Cytochrome P450 2D6): 2450 nM |
| CCCC(CCC)C(=O)O [VALPROIC ACID] | Not Active | Not Active | Not Active |  |  |
| CCC1=C[C@@H]2CN(C1)Cc1c([nH]c3ccccc13)[C@@](C(=O)OC)(c1cc3c(cc1OC)N(C)[C@H]1[C@@](O)(C(=O)OC)[C@H](OC(C)=O)[C@]4(CC)C=CCN5CC[C@]31[C@@H]54)C2 [VINORELBINE] | Not Active | Not Active | Not Active |  |  |
| CADMIUM DICHLORIDE | Not Active | Not Active | Not Active | Not Active | Ki (Glucocorticoid receptor [2]): Not Active; Ki (Androgen receptor [3]): Not Active |
